Test results taken from patent US20060172993A1 (priority 2002, published 2006).

System: Patients diagnosed with Alzheimer's Disease
Test: Adverse events / safety monitoring in the trial
Assay type: in vivo, human
Procedure: Subjects in the Placebo group received 21 weeks (5 months) of placebo medication.
The safety of the drug was also monitored throughout the study. Blood samples for biochemistry and haematology and random urine sample for urinalysis were taken at each visit and at completion for all efficacy testing. Systolic and diastolic blood pressure were measured in the sitting position, pulse and vital signs were recorded at each visit.

COc1ccc2c3c1O[C@H]1C[C@@H](O)C=C[C@@]31CCN(C)C2 [GAL, galantamine]
Adverse event Agitation, % of patients (8 mg/day): (15.0%)
Adverse event Agitation, number of patients (8 mg/day): 21
Adverse event Anorexia, % of patients (8 mg/day): (5.7%)
Adverse event Anorexia, number of patients (8 mg/day): 8
Adverse event Depression, % of patients (8 mg/day): (2.9%)
Adverse event Depression, number of patients (8 mg/day): 4
Adverse event Diarrhea, % of patients (8 mg/day): (5.0%)
Adverse event Diarrhea, number of patients (8 mg/day): 7
Adverse event Dizziness, % of patients (8 mg/day): (5.0%)
Adverse event Dizziness, number of patients (8 mg/day): 7
Adverse event Dyspepsia, % of patients (8 mg/day): (2.9%)
Adverse event Dyspepsia, number of patients (8 mg/day): 4
Adverse event Edema peripheral, % of patients (8 mg/day): (6.4%)
Adverse event Edema peripheral, number of patients (8 mg/day): 9
Adverse event Fall, % of patients (8 mg/day): (7.9%)
Adverse event Fall, number of patients (8 mg/day): 11
Adverse event Headache, % of patients (8 mg/day): (3.6%)
Adverse event Headache, number of patients (8 mg/day): 5
Adverse event Injury, % of patients (8 mg/day): (3.6%)
Adverse event Injury, number of patients (8 mg/day): 5
Adverse event Nausea, % of patients (8 mg/day): (5.7%)
Adverse event Nausea, number of patients (8 mg/day): 8
Adverse event Rhinitis, % of patients (8 mg/day): (6.4%)
Adverse event Rhinitis, number of patients (8 mg/day): 9
Adverse event Urinary tract infection, % of patients (8 mg/day): (7.9%)
Adverse event Urinary tract infection, number of patients (8 mg/day): 11
Adverse event Vomiting, % of patients (8 mg/day): (3.6%)
Adverse event Vomiting, number of patients (8 mg/day): 5
Adverse event Weight decrease, % of patients (8 mg/day): (1.4%)
Adverse event Weight decrease, number of patients (8 mg/day): 2
Adverse event of clinical interest Bradycardia, % of patients (8 mg/day): (3.6%)
Adverse event of clinical interest Bradycardia, number of patients (8 mg/day): 5
Adverse event of clinical interest Convulsions, number of patients (8 mg/day): 0
Adverse event of clinical interest Fatigue, % of patients (8 mg/day): (2.1%)
Adverse event of clinical interest Fatigue, number of patients (8 mg/day): 3
Adverse event of clinical interest Muscle weakness, % of patients (8 mg/day): (0.7%)
Adverse event of clinical interest Muscle weakness, number of patients (8 mg/day): 1
Adverse event of clinical interest Syncope, % of patients (8 mg/day): (1.4%)
Adverse event of clinical interest Syncope, number of patients (8 mg/day): 2
Serious adverse event Abdominal pain, % of patients (8 mg/day): (0.0%)
Serious adverse event Abdominal pain, number of patients (8 mg/day): 0
Serious adverse event Agitation, % of patients (8 mg/day): (1.4%)
Serious adverse event Agitation, number of patients (8 mg/day): 2
Serious adverse event Asthenia, % of patients (8 mg/day): (0.0%)
Serious adverse event Asthenia, number of patients (8 mg/day): 0
Serious adverse event Basal cell carcinoma, % of patients (8 mg/day): (0.0%)
Serious adverse event Basal cell carcinoma, number of patients (8 mg/day): 0
Serious adverse event Breast neoplasm female, % of patients (8 mg/day): (0.0%)
Serious adverse event Breast neoplasm female, number of patients (8 mg/day): 0
Serious adverse event Cardiac failure, % of patients (8 mg/day): (0.0%)
Serious adverse event Cardiac failure, number of patients (8 mg/day): 0
Serious adverse event Dehydration, % of patients (8 mg/day): (0.0%)
Serious adverse event Dehydration, number of patients (8 mg/day): 0
Serious adverse event Diarrhea, % of patients (8 mg/day): (0.0%)
Serious adverse event Diarrhea, number of patients (8 mg/day): 0
Serious adverse event Dyspnea, % of patients (8 mg/day): (0.0%)
Serious adverse event Dyspnea, number of patients (8 mg/day): 0
Serious adverse event Fall, % of patients (8 mg/day): (2.9%)
Serious adverse event Fall, number of patients (8 mg/day): 4
Serious adverse event Gi haemorrhage, % of patients (8 mg/day): (0.0%)
Serious adverse event Gi haemorrhage, number of patients (8 mg/day): 0
Serious adverse event Injury, % of patients (8 mg/day): (0.7%)
Serious adverse event Injury, number of patients (8 mg/day): 1
Serious adverse event Myocardial infarction, % of patients (8 mg/day): (2.1%)
Serious adverse event Myocardial infarction, number of patients (8 mg/day): 3
Serious adverse event Nausea, % of patients (8 mg/day): (0.0%)
Serious adverse event Nausea, number of patients (8 mg/day): 0
Serious adverse event Pneumonia, % of patients (8 mg/day): (0.7%)
Serious adverse event Pneumonia, number of patients (8 mg/day): 1
Serious adverse event Sepsis, % of patients (8 mg/day): (0.0%)
Serious adverse event Sepsis, number of patients (8 mg/day): 0
Serious adverse event Surgical intervention, % of patients (8 mg/day): (0.0%)
Serious adverse event Surgical intervention, number of patients (8 mg/day): 0
Serious adverse event Syncope, % of patients (8 mg/day): (0.7%)
Serious adverse event Syncope, number of patients (8 mg/day): 1
Serious adverse event Thrombophlebitis deep, % of patients (8 mg/day): (0.0%)
Serious adverse event Thrombophlebitis deep, number of patients (8 mg/day): 0
Serious adverse event Transient ischemic attack, % of patients (8 mg/day): (0.7%)
Serious adverse event Transient ischemic attack, number of patients (8 mg/day): 1
Serious adverse event Urinary tract infection, % of patients (8 mg/day): (0.7%)
Serious adverse event Urinary tract infection, number of patients (8 mg/day): 1
Serious adverse event Vomiting, % of patients (8 mg/day): (0.0%)
Serious adverse event Vomiting, number of patients (8 mg/day): 0
Total patients with any SAE, % (8 mg/day): (10.0%)
Total patients with any SAE, number (8 mg/day): 14
Adverse event Agitation, % of patients (16 mg/day): (10.0%)
Adverse event Agitation, number of patients (16 mg/day): 28
Adverse event Anorexia, % of patients (16 mg/day): (6.5%)
Adverse event Anorexia, number of patients (16 mg/day): 18
Adverse event Depression, % of patients (16 mg/day): (8.6%)
Adverse event Depression, number of patients (16 mg/day): 24
Adverse event Diarrhea, % of patients (16 mg/day): (12.2%)
Adverse event Diarrhea, number of patients (16 mg/day): 34
Adverse event Dizziness, % of patients (16 mg/day): (5.4%)
Adverse event Dizziness, number of patients (16 mg/day): 15
Adverse event Dyspepsia, % of patients (16 mg/day): (4.7%)
Adverse event Dyspepsia, number of patients (16 mg/day): 13
Adverse event Edema peripheral, % of patients (16 mg/day): (2.9%)
Adverse event Edema peripheral, number of patients (16 mg/day): 8
Adverse event Fall, % of patients (16 mg/day): (5.05%)
Adverse event Fall, number of patients (16 mg/day): 14
Adverse event Headache, % of patients (16 mg/day): (6.8%)
Adverse event Headache, number of patients (16 mg/day): 19
Adverse event Injury, % of patients (16 mg/day): (4.3%)
Adverse event Injury, number of patients (16 mg/day): 12
Adverse event Nausea, % of patients (16 mg/day): (13.3%)
Adverse event Nausea, number of patients (16 mg/day): 37
Adverse event Rhinitis, % of patients (16 mg/day): (3.2%)
Adverse event Rhinitis, number of patients (16 mg/day): 9
Adverse event Urinary tract infection, % of patients (16 mg/day): (8.2%)
Adverse event Urinary tract infection, number of patients (16 mg/day): 23
Adverse event Vomiting, % of patients (16 mg/day): (6.1%)
Adverse event Vomiting, number of patients (16 mg/day): 17
Adverse event Weight decrease, % of patients (16 mg/day): (5.4%)
Adverse event Weight decrease, number of patients (16 mg/day): 15
Adverse event of clinical interest Bradycardia, % of patients (16 mg/day): (2.5%)
Adverse event of clinical interest Bradycardia, number of patients (16 mg/day): 7
Adverse event of clinical interest Convulsions, number of patients (16 mg/day): 0
Adverse event of clinical interest Fatigue, % of patients (16 mg/day): (3.6%)
Adverse event of clinical interest Fatigue, number of patients (16 mg/day): 10
Adverse event of clinical interest Muscle weakness, % of patients (16 mg/day): (1.1%)
Adverse event of clinical interest Muscle weakness, number of patients (16 mg/day): 3
Adverse event of clinical interest Syncope, % of patients (16 mg/day): (1.8%)
Adverse event of clinical interest Syncope, number of patients (16 mg/day): 5
Serious adverse event Abdominal pain, % of patients (16 mg/day): (0.7%)
Serious adverse event Abdominal pain, number of patients (16 mg/day): 2
Serious adverse event Agitation, % of patients (16 mg/day): (0.4%)
Serious adverse event Agitation, number of patients (16 mg/day): 1
Serious adverse event Asthenia, % of patients (16 mg/day): (0.7%)
Serious adverse event Asthenia, number of patients (16 mg/day): 2
